From ChEMBL document CHEMBL5143734, “Seco-Lupane Triterpene Derivatives Induce Ferroptosis through GPX4/ACSL4 Axis and Target Cyclin D1 to Block the Cell Cycle” (J Med Chem, 2022)

Experiments:
Type in all cases: functional, cell-based
MCF7 = test: Cytotoxicity against human MCF7 cells assessed as reduction in cell viability by CCK-8 assay
A549 = test: Cytotoxicity against human A549 cells assessed as reduction in cell viability by CCK-8 assay
HepG2 = test: Cytotoxicity against human HepG2 cells assessed as reduction in cell viability by CCK-8 assay
PC-3M = test: Cytotoxicity against human PC-3M cells assessed as reduction in cell viability by CCK-8 assay
PANC-1 = test: Cytotoxicity against human PANC-1 cells assessed as reduction in cell viability by CCK-8 assay

SMILES	IC50 (MCF7) [µM]	IC50 (A549) [µM]	IC50 (HepG2) [µM]	IC50 (PC-3M) [µM]	IC50 (PANC-1) [µM]
C=C(C)[C@@H]1CC[C@]2(C(=O)OCCCCCCCCCCn3cc(CCN)c4ccccc43)CC[C@]3(C)[C@H](C[C@H]4OC(=O)C[C@@H](O)[C@]5(C)[C@@H]4[C@@]3(C)CC[C@H]5C(=C)C)[C@@H]12	5.48	6.59	1.68	5.69	5.59
C=C(C)[C@@H]1CC[C@]2(C(=O)OCCCCCCn3ccnc3C)CC[C@]3(C)[C@H](C[C@@H](O)[C@@H]4[C@@]5(C)C(CC(=O)OC)OC(C)(C)C5CC[C@]43C)[C@@H]12 (stereo not given in full)	29.9	25.4	12	20.9	18.7
C=C(C)[C@@H]1CC[C@]2(C(=O)OCCCCCCn3cc(CCN)c4ccccc43)CC[C@]3(C)[C@H](C[C@H]4OC(=O)C[C@@H](O)[C@]5(C)[C@@H]4[C@@]3(C)CC[C@H]5C(=C)C)[C@@H]12	5.87	6.5	1.03	6	7.02
C=C(C)[C@@H]1CC[C@]2(C(=O)OCCCCn3cc(CCN)c4ccccc43)CC[C@]3(C)[C@H](C[C@@H](O)[C@@H]4[C@@]5(C)C(CC(=O)OC)OC(C)(C)C5CC[C@]43C)[C@@H]12 (stereo not given in full)	6.25	7.05	1.7	5.66	6.42
C=C(C)[C@@H]1CC[C@]2(C(=O)OCCCCn3cncn3)CC[C@]3(C)[C@H](C[C@H]4OC(=O)C[C@@H](O)[C@]5(C)[C@@H]4[C@@]3(C)CC[C@H]5C(=C)C)[C@@H]12	46.2	31.3	110	18.1	60.5
C=C(C)[C@@H]1CC[C@]2(C(=O)OCCCCCCBr)CC[C@]3(C)[C@H](C[C@@H](O)[C@@H]4[C@@]5(C)C(CC(=O)OC)OC(C)(C)C5CC[C@]43C)[C@@H]12 (stereo not given in full)	73	45.5	22.2	29	37.5
C=C(C)[C@@H]1CC[C@]2(C(=O)OCCCCCn3cnc(C)c3)CC[C@]3(C)[C@H](C[C@H]4OC(=O)C[C@@H](O)[C@]5(C)[C@@H]4[C@@]3(C)CC[C@H]5C(=C)C)[C@@H]12	95.8	12.9	10.6	14.8	26.5
C=C(C)[C@@H]1CC[C@]2(C(=O)OCCCCCCCCCCn3ccnc3)CC[C@]3(C)[C@H](C[C@H]4OC(=O)C[C@@H](O)[C@]5(C)[C@@H]4[C@@]3(C)CC[C@H]5C(=C)C)[C@@H]12	44.9	17.2	4.23	11.8	11.3
C=C(C)[C@@H]1CC[C@]2(C(=O)O)CC[C@]3(C)[C@H](C[C@@H](O)[C@@H]4[C@@]5(C)C(CC(=O)OC)OC(C)(C)C5CC[C@]43C)[C@@H]12 (stereo not given in full)	> 200	> 200	> 200	103	> 200
C=C(C)[C@@H]1CC[C@]2(C(=O)OCCCCCn3cnc(C)c3)CC[C@]3(C)[C@H](C[C@@H](O)[C@@H]4[C@@]5(C)C(CC(=O)OC)OC(C)(C)C5CC[C@]43C)[C@@H]12 (stereo not given in full)	60.8	28.5	14.1	30.1	33.2
C=C(C)[C@@H]1CC[C@]2(C(=O)OCCCCn3ccnc3CC)CC[C@]3(C)[C@H](C[C@@H](O)[C@@H]4[C@@]5(C)C(CC(=O)OC)OC(C)(C)C5CC[C@]43C)[C@@H]12 (stereo not given in full)	40.3	28.5	15.7	25.9	31.5
C=C(C)[C@@H]1CC[C@]2(C(=O)OCCCn3cncn3)CC[C@]3(C)[C@H](C[C@@H](O)[C@@H]4[C@@]5(C)C(CC(=O)OC)OC(C)(C)C5CC[C@]43C)[C@@H]12 (stereo not given in full)	81.6	31.3	29.2	43.2	57
C=C(C)[C@@H]1CC[C@]2(C(=O)OCCCCCCCCCCn3ccnc3C)CC[C@]3(C)[C@H](C[C@@H](O)[C@@H]4[C@@]5(C)C(CC(=O)OC)OC(C)(C)C5CC[C@]43C)[C@@H]12 (stereo not given in full)	19.4	19.5	4.91	10.3	7.95
C=C(C)[C@@H]1CC[C@]2(C(=O)OCCCCn3ccnc3)CC[C@]3(C)[C@H](C[C@H]4OC(=O)C[C@@H](O)[C@]5(C)[C@@H]4[C@@]3(C)CC[C@H]5C(=C)C)[C@@H]12	84.4	32.7	20.9	28.2	50.1
C=C(C)[C@@H]1CC[C@]2(C(=O)OCCCCCCCCCCn3ccnc3CC)CC[C@]3(C)[C@H](C[C@H]4OC(=O)C[C@@H](O)[C@]5(C)[C@@H]4[C@@]3(C)CC[C@H]5C(=C)C)[C@@H]12	30.9	15.1	4.36	13.9	9.93
